Literature values as cited in patent US8642081B2, “Chewable, suckable and swallowable tablet containing a calcium-containing compound as an active substance” (Takeda Nycomed AS, priority 2004, dated 2014).

Tested on: treated patients
Conditions: annual injections of 150.000-300.000 IU

vitamin D
overall fracture rate: significant reduction
rate of hip fracture: not
